Experimental data from patent US20240400571A1, “5,6 UNSATURATED BICYCLIC HETEROCYLES USEFUL AS INHIBITORS OF NOD-LIKE RECEPTOR PROTEIN 3” (Merck Sharp & Dohme LLC, priority 2023, published 2024).

Target: T1, NLRP3 inflammasome (Homo sapiens, UniProt Q96P20)
T1 construct: host or cells: THP-1 human monocytic cells, treated with PMA and stimulated with gramicidin
Assay: ASC-SPECK formation in THP-1 cells after gramicidin stimulation (NLRP3 inflammasome activation)
Format: cell-based
Conditions: PMA-treated human monocytic THP-1 cells; compound 1 h before 12.5 μg/ml gramicidin, 3-hour treatment; ASC SPECK imaging; read-out: EC50 values (nM) for Examples that inhibit NLRP3 inflammasome activation
Experimental: The ability of compounds to inhibit NLRP3 inflammasome activation was determined in vitro by monitoring formation of the ASC-SPECK in human monocytic THP-1 cells after stimulation. THP-1 cells (ATCC catalog #TIB-202) were maintained in complete growth media containing Roswell Park Memorial Institute RPMI (ATCC catalog #30-2001), 10% heat inactivated fetal bovine serum, 1× penicillin/streptomycin and 0.05 mM 2-mercaptoethanol. At the start of the assay, undifferentiated THP-1 cells were plated at a density of 20,000 cells per well in a 384-well plate (Poly-D-lysine coated Cell Carrier Ultra microplate, Perkin Elmer catalog #6057500) in complete growth media supplemented with 10 ng/ml phorbol 12-myristate 13-acetate (PMA; Sigma catalog #P8139), and then incubated overnight. The next day, media was replaced with assay media [RPMI (Gibco catalog #11875-093), 0.01% bovine serum albumin (BSA)]. Compounds were serially diluted in DMSO and then added to wells one hour prior to the addition of 12.5 μg/ml Gramicidin (Enzo Lifescience, catalog #ALX-350-233-M005). All incubations were carried out at 37° C. (5% CO2/95% air). Following a 3-hour treatment with gramicidin, cells are fixed with 4% paraformaldehyde and stored at 4° C. until immunofluorescence staining.
Immunofluorescence staining: Anti-ASC antibody (MBL catalog #D086-3) was desalted and labeled with Alexa 488 antibody labeling kit (Thermo catalog #A20181) prior to use as described below. After fixation, the following steps were carried out at room temperature. Cells were first permeabilized with 0.3% Triton X-100 in phosphate-buffered saline (PBS) for 15 minutes and then incubated in blocking buffer containing 5% goat serum, 0.3% tween-20 and 0.03% sodium azide in PBS for 1 hour. Cells were stained with a mixture of ASC-Alexa 488 antibody (diluted 1:200 in blocking buffer) and nuclear stain DRAQ5 (1:5000 in blocking buffer, Thermo catalog #62251) in blocking buffer for 1 hour. Following a wash with 0.3% Tween-20 in PBS, plates were imaged with an Opera Phenix High Content Screening System. The number of DRAQ5 positive cells containing ASC SPECKS were quantified in each well.
Data analysis: EC50 values were calculated by standard curve-fitting analysis using an internally developed program in TIBCO Spotfire software.

T1 sequence (Q96P20 whole entry): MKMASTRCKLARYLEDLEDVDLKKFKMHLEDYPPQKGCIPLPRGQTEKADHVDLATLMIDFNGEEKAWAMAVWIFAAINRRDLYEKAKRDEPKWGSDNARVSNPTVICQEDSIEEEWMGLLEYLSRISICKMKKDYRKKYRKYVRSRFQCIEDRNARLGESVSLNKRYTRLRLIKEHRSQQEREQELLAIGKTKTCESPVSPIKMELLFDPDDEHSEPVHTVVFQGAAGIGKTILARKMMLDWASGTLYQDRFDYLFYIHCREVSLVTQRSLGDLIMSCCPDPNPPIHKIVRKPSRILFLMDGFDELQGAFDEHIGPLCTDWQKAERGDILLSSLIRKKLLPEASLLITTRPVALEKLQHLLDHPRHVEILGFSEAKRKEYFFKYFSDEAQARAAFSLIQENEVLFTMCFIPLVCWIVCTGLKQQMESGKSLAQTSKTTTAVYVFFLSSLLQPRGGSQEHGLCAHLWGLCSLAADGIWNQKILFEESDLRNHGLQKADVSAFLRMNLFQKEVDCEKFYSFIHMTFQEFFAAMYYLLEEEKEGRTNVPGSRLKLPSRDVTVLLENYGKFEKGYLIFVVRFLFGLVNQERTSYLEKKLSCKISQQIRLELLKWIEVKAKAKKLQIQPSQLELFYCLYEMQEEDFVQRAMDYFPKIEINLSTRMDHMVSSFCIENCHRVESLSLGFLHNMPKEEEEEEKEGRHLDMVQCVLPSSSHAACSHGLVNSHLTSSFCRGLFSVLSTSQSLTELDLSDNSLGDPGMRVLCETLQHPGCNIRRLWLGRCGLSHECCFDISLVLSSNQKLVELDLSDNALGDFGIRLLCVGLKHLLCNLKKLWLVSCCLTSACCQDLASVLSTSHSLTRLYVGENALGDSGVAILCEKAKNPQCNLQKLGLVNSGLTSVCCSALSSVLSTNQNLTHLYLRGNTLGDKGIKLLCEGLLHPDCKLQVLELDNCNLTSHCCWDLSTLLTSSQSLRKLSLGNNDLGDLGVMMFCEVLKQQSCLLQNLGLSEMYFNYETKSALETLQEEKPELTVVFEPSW

Structure (SMILES) | EC50 [nM]
CCN1CCC[C@@H](n2cnc3c(C)c(-c4ccc(C(F)(F)F)cc4OC(F)F)nnc32)C1 [Example 9, (R)-3-(2-(difluoromethoxy)-4-(trifluoromethyl)phenyl)-7-(1-ethylpiperidin-3-yl)-4-methyl-7H-imidazo[4,5-c]pyridazine] | 699
Cc1c(-c2ccc(C(F)(F)F)cc2O)nnc2c1ncn2[C@H]1CC[C@H]2CC[C@@H]1N2 (single isomer, unassigned) [Example 25] | 1010
